Reference: patent EP0207497A2, “Quinolonecarboxylic acid derivative and process for its preparation” (KYORIN PHARMACEUTICAL CO., LTD., priority 1985, dated 1987)
Converted amounts (≈) assume the structure as drawn.

Assays:
Experiment in all cases: Antibacterial spectrum, MIC determination (method of Japan Society of Chemotherapy)
Assay type in all cases: cell-based
[1] = test system: Enterobacter cloacae IID 977; conditions: IID977; Enterobacter cloacae IID 977, Gram -, 10^6 cells/ml
[2] = test system: Escherichia coli NIHJ JC-2; conditions: NIHJJC2; Escherichia coli NIHJ JC-2, Gram -, 10^6 cells/ml
E. coli ML 4707 = conditions: Escherichia coli, ML4707; E. coli ML 4707, Gram -, 10^6 cells/ml; read-out: MIC
S. epidermidis IID 866 = conditions: Staphylococcus epidermidis, IID866; S. epidermidis IID 866, Gram +, 10^6 cells/ml; read-out: MIC
[3] = test system: Streptococcus pyogenes (S-8); conditions: Streptococcus pyogenes (S-8), Gram +, 10^6 cells/ml; read-out: MIC
F. necrophorum S-45 = conditions: Fusobacterium necrophorum, S45; F. necrophorum S-45, Gram -, 10^6 cells/ml
P. aeruginosa IID 1210 = conditions: Pseudomonas aeruginosa, IID1210; P. aeruginosa IID 1210, Gram -, 10^6 cells/ml
[4] = test system: Serratia marcescens IID 618; conditions: IID618; Serratia marcescens IID 618, Gram -, 10^6 cells/ml; read-out: MIC
S. pyogenes IID 692 = conditions: Streptococcus pyogenes, IID692; S. pyogenes IID 692, Gram +, 10^6 cells/ml
Shigella sonnei IID 969 = conditions: IID969; Shigella sonnei IID 969, Gram -, 10^6 cells/ml
Protocol: Minimal inhibitory concentrations (MICs) were determined in accordance with the method recommended by Japan Society of Chemotherapy.

[5] = test system: S. aureus IID 670 (Terajima); conditions: Staphylococcus aureus, IID670; S. aureus IID 670 (Terajima), Gram +, 10^6 cells/ml; read-out: MIC
[6] = test system: Propionibacterium acens 11828; conditions: Propionibacterium acens 11828, Gram +, 10^6 cells/ml; read-out: MIC
B. distasonis 8503 = conditions: Parabacteroides distasonis; B. distasonis 8503, Gram -, 10^6 cells/ml; read-out: MIC
[7] = test system: Staphylococcus aureus 209 P; conditions: Staphylococcus aureus 209 P, Gram +, 10^6 cells/ml; read-out: MIC
[8] = test system: Bacillus subtilis PCI 219; conditions: PCI219; Bacillus subtilis PCI 219, Gram +, 10^6 cells/ml; read-out: MIC
P. maltophilia GIFU 2491 = conditions: Stenotrophomonas maltophilia, GIFU2491; P. maltophilia GIFU 2491, Gram -, 10^6 cells/ml; read-out: MIC
B. fragilis 25285 = conditions: Bacteroides fragilis; B. fragilis 25285, Gram -, 10^6 cells/ml; read-out: MIC
S. pneumoniae IID 552 = conditions: Streptococcus pneumoniae, IID552; S. pneumoniae IID 552, Gram +, 10^6 cells/ml
[9] = test system: Clostridium difficile I-E; conditions: Clostridioides difficile, Gram +, 10^6 cells/ml
[10] = test system: Acinetobacter anitratus IID 876; conditions: Acinetobacter calcoaceticus, IID876; Acinetobacter anitratus IID 876, Gram -, 10^6 cells/ml; read-out: MIC
[11] = test system: Peptostreptococcus anaerobius KYA 27337; conditions: KYA27337; Peptostreptococcus anaerobius KYA 27337, Gram +, 10^6 cells/ml; read-out: MIC
[12] = test system: Yersinia enterocolitica IID 981; conditions: IID981; Yersinia enterocolitica IID 981, Gram -, 10^6 cells/ml; read-out: MIC
P. mirabilis IID 994 = conditions: Proteus mirabilis, IID994; P. mirabilis IID 994, Gram -, 10^6 cells/ml; read-out: MIC
[13] = test system: Citrobacter freundii IID 976; conditions: IID976; Citrobacter freundii IID 976, Gram -, 10^6 cells/ml; read-out: MIC
[14] = test system: Pseudomonas aeruginosa V-1; conditions: V1; Pseudomonas aeruginosa V-1, Gram -, 10^6 cells/ml
[15] = test system: Peptococcus magnus KY 017; conditions: Finegoldia magna, KY017; Peptococcus magnus KY 017, Gram +, 10^6 cells/ml; read-out: MIC
E. faecalis IID 682 = conditions: Enterococcus faecalis, IID682; E. faecalis IID 682, Gram +, 10^6 cells/ml
[16] = test system: Proteus vulgaris IFO 3167; conditions: IFO3167; Proteus vulgaris IFO 3167, Gram -, 10^6 cells/ml; read-out: MIC
[17] = test system: B. thetaiotaomicron (0661); conditions: Bacteroides thetaiotaomicron; B. thetaiotaomicron (0661), Gram -, 10^6 cells/ml; read-out: MIC
[18] = test system: Veillonella parvula KYA 10790; conditions: KYA10790; Veillonella parvula KYA 10790, Gram -, 10^6 cells/ml
C. ramosum = conditions: Thomasclavelia ramosa; C. ramosum, Gram +, 10^6 cells/ml; read-out: MIC

NC1CCN(c2c(F)cc3c(=O)c(C(=O)O)cn(C4CC4)c3c2Br)C1 (stereo not shown) [Exp. 1, 7-(3-Amino-1-pyrrolidinyl)-8-bromo-1-cyclopropyl-6-fluoro-1,4-dihydro-4-oxo-3-quinolinecarboxylic acid]
MIC [1]: 0.025 µg/mL (≈ 0.0609 µM)
MIC [2]: 6.3 ng/mL (≈ 0.0154 µM)
MIC (E. coli ML 4707): 0.0125 µg/mL (≈ 0.0305 µM)
MIC (S. epidermidis IID 866): 0.1 µg/mL (≈ 0.244 µM)
MIC [3]: 0.1 µg/mL (≈ 0.244 µM)
MIC (F. necrophorum S-45): 0.2 µg/mL (≈ 0.488 µM)
MIC (P. aeruginosa IID 1210): 0.78 µg/mL (≈ 1.9 µM)
MIC [4]: 0.05 µg/mL (≈ 0.122 µM)
MIC (S. pyogenes IID 692): 0.2 µg/mL (≈ 0.488 µM)
MIC (Shigella sonnei IID 969): 6.3 ng/mL (≈ 0.0154 µM)
MIC [5]: 0.05 µg/mL (≈ 0.122 µM)
MIC [6]: 1.56 µg/mL (≈ 3.8 µM)
MIC (B. distasonis 8503): 0.39 µg/mL (≈ 0.951 µM)
MIC [7]: 0.05 µg/mL (≈ 0.122 µM)
MIC [8]: 0.025 µg/mL (≈ 0.0609 µM)
MIC (P. maltophilia GIFU 2491): 0.05 µg/mL (≈ 0.122 µM)
MIC (B. fragilis 25285): 0.1 µg/mL (≈ 0.244 µM)
MIC (S. pneumoniae IID 552): 0.1 µg/mL (≈ 0.244 µM)
MIC [9]: 0.78 µg/mL (≈ 1.9 µM)
MIC [10]: 0.05 µg/mL (≈ 0.122 µM)
MIC [11]: 0.2 µg/mL (≈ 0.488 µM)
MIC [12]: 0.025 µg/mL (≈ 0.0609 µM)
MIC (P. mirabilis IID 994): 0.0125 µg/mL (≈ 0.0305 µM)
MIC [13]: 0.025 µg/mL (≈ 0.0609 µM)
MIC [14]: 0.2 µg/mL (≈ 0.488 µM)
MIC [15]: 0.1 µg/mL (≈ 0.244 µM)
MIC (E. faecalis IID 682): 0.1 µg/mL (≈ 0.244 µM)
MIC [16]: 0.0125 µg/mL (≈ 0.0305 µM)
MIC [17]: 0.2 µg/mL (≈ 0.488 µM)
MIC [18]: 0.1 µg/mL (≈ 0.244 µM)
MIC (C. ramosum): 1.56 µg/mL (≈ 3.8 µM)
